# Experimental data reported in ChEMBL document CHEMBL1145312, “Structure-activity relationships of triazolopyridine oxazole p38 inhibitors: identification of candidates for clinical development” (Bioorg Med Chem Lett, 2006).
# Tests used:
# [1] = Solubility in PBS buffer at ph 6.5; assay type: physicochemical
# Monocyte = test: Inhibition of LPS-induced TNFalpha production in human monocytes; assay type: functional, cell-based
# [2] = Permeability from apical to basolateral side of Caco-2 cell membrane; assay type: ADME, cell-based; conditions: human
# [3] = Volume of distribution in rat; assay type: ADME, organism-based; conditions: in vivo, read-out: Vdss
# [4] = Bioavailability in rat; assay type: ADME, organism-based; conditions: in vivo
# [5] = Volume of distribution in monkey; assay type: ADME, organism-based, Macaca mulatta; conditions: rhesus monkey, in vivo; read-out: Vdss
# [6] = Bioavailability in monkey; assay type: ADME, organism-based, Macaca mulatta; conditions: rhesus monkey, in vivo
# hERG (KCNH2) = hERG (KCNH2) (Homo sapiens, UniProt Q12809); test: Inhibition of hERG channel current in HEK293 cells at 1 uM; assay type: toxicity, cell-based; conditions: HEK293 cells that express hERG
# hERG (KCNH2), sequence (Q12809 whole entry): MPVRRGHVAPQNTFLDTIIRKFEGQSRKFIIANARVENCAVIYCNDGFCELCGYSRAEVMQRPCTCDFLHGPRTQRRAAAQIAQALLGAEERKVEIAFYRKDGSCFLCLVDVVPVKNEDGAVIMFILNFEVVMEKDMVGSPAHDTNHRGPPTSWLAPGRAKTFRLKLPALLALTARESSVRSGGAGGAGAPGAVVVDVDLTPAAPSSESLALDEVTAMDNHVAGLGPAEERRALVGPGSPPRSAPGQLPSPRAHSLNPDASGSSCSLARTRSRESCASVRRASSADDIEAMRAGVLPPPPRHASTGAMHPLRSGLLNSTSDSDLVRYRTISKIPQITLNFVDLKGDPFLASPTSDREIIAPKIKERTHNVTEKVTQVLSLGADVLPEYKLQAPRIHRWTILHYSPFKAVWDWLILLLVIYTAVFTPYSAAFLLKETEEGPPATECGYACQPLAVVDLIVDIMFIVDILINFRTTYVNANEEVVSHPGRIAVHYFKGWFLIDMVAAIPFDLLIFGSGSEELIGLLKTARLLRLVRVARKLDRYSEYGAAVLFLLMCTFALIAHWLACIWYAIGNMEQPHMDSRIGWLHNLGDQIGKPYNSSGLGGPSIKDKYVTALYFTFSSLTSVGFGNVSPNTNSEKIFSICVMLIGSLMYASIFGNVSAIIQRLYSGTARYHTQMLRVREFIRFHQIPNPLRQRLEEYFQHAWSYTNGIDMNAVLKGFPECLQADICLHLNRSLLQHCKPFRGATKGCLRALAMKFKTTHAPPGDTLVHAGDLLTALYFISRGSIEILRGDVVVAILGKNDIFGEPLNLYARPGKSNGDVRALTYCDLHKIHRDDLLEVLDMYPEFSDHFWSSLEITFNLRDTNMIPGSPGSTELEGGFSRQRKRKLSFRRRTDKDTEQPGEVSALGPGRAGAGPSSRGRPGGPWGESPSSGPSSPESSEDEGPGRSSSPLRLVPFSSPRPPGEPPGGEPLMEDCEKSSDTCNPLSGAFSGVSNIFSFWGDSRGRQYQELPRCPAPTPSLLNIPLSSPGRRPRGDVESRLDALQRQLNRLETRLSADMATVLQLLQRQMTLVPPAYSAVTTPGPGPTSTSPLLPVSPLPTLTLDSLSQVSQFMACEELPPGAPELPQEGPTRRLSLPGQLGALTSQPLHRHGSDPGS
# Rattus norvegicus = species on record: Rattus norvegicus; test: Inhibition of LPS-induced TNFalpha release in rat; assay type: functional
# [7] = biological target: Mitogen-activated protein kinase 14 (Homo sapiens, UniProt Q16539); test: Inhibition of p38alpha
# Mitogen-activated protein kinase 14, sequence (Q16539 whole entry): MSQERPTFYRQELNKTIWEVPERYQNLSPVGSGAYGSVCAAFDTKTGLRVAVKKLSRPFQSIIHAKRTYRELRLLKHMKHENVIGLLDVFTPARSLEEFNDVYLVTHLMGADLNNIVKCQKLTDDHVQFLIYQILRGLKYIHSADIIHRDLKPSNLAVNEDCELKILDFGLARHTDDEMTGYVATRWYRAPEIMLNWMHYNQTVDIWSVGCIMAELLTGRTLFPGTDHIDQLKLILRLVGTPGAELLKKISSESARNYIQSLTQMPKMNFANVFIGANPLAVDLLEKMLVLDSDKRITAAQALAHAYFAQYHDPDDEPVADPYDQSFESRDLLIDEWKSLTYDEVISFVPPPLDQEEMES
# Homo sapiens = species on record: Homo sapiens; test: Inhibition of LPS-induced TNFalpha production in human whole blood; assay type: functional, organism-based
# [8] = Permeability from basolateral to apical side of Caco-2 cell membrane; assay type: ADME, cell-based; conditions: human
compound,measurement,setting,value
CC(C)c1nnc2ccc(-c3ocnc3-c3cc(F)ccc3F)cn12,solubility,[1],8.1 µg/mL
same,IC50,Monocyte,25 nM
same,Papp A→B,[2],43 ×10⁻⁶ cm/s
same,Vd,[3],0.8 L/kg
same,bioavailability,[4],58%
same,Vd,[5],1.3 L/kg
same,bioavailability,[6],40%
same,inhibition at 1 µM,hERG (KCNH2),0%
same,ED50,Rattus norvegicus,0.3 mg/kg
same,IC50,[7],5.8 nM
same,IC50,Homo sapiens,259 nM
same,Papp B→A,[8],29 ×10⁻⁶ cm/s
